In data set [1] the test system is Human rhinovirus sp. Put plainly: Compound was tested in vitro for minimal inhibitory constant against HRV-14; high capacity tissue culture infectious dose. It counts as functional, organism-based.
The test system of data set [2] is Human rhinovirus sp. Put plainly: Antirhinoviral activity calculated for mean of fifteen serotypes (HRV-1A, -1B, -2, -6, -14, -15, -21, -22, -25, -30, -41, --50, -67, -86, -89); inactive against HRV-6,-41,-67,-86. It counts as functional, organism-based.
The subject of data set [3] is Human rhinovirus sp. Put plainly: Tested for in vitro antiviral activity against Human rhinovirus (HRV)-14. It counts as functional.
In data set [4] the test system is Human rhinovirus sp. Nature of the data set: Antirhinoviral activity calculated for mean of fifteen serotypes (HRV-1A, -1B, -2, -6, -14, -15, -21, -22, -25, -30, -41, --50, -67, -86, -89). Format: functional.
Data set [5] deals with Human rhinovirus sp. Put plainly: Compound was tested in vitro for minimal inhibitory constant against 80% of fifteen human rhinovirus serotypes.
Data set [6] can be described thus: Partition coefficient (logP) (HPLC). It counts as physicochemical. Conditions: octanol/water.
For data set [7], the system named is Human rhinovirus sp. Nature of the data set: tested for minimal inhibitory concentration against Human rhinovirus serotype 2 by plaque reduction assay. It counts as functional. For orientation: Plaque reduction counts the foci of infection that form in a cell layer.
Data set [8] deals with Human rhinovirus sp. Put plainly: tested for minimal inhibitory concentration against Human rhinovirus serotype 25 by plaque reduction assay. Format: functional.
Data set [9] has as its system Human rhinovirus sp. Nature of the data set: tested for minimal inhibitory concentration against Human rhinovirus serotype 22 by plaque reduction assay. It counts as functional.
Data set [10] has as its system Human rhinovirus sp. Nature of the data set: tested for minimal inhibitory concentration against Human rhinovirus serotype 14 by plaque reduction assay. It counts as functional.
Data set [11] relates to Human rhinovirus sp. Nature of the data set: tested for minimal inhibitory concentration against Human rhinovirus serotype 6 by plaque reduction assay. Format: functional.
Data set [12] relates to Human rhinovirus sp. Nature of the data set: tested for minimal inhibitory concentration against Human rhinovirus serotype 1B by plaque reduction assay. Format: functional.
The subject of data set [13] is Human rhinovirus sp. Nature of the data set: tested for minimal inhibitory concentration against Human rhinovirus serotype 41 by plaque reduction assay. Format: functional.
The subject of data set [14] is Human rhinovirus sp. Put plainly: tested for minimal inhibitory concentration against Human rhinovirus serotype 50 by plaque reduction assay. It counts as functional.
In data set [15] the test system is Human rhinovirus sp. Put plainly: tested for minimal inhibitory concentration against Human rhinovirus serotype 86 by plaque reduction assay. It counts as functional.
In data set [16] the test system is Human rhinovirus sp. Nature of the data set: tested for minimal inhibitory concentration against Human rhinovirus serotype 67 by plaque reduction assay. It counts as functional.
The test system of data set [17] is Human rhinovirus sp. Put plainly: tested for minimal inhibitory concentration against Human rhinovirus serotype 89 by plaque reduction assay. It counts as functional.
Data set [18] deals with Human rhinovirus sp. Put plainly: tested for minimal inhibitory concentration against Human rhinovirus serotype 15 by plaque reduction assay. Format: functional.
In data set [19] the test system is Human rhinovirus sp. Nature of the data set: tested for minimal inhibitory concentration against Human rhinovirus serotype 1A by plaque reduction assay. It counts as functional.
Data set [20] deals with Human rhinovirus sp. Nature of the data set: tested for minimal inhibitory concentration against Human rhinovirus serotype 30 by plaque reduction assay. Format: functional.
Data set [21] has as its system Human rhinovirus sp. Nature of the data set: tested for minimal inhibitory concentration against Human rhinovirus serotype 21 by plaque reduction assay. It counts as functional.
Data set [22] has as its system Human rhinovirus sp. Put plainly: Antirhinoviral activity calculated for mean of fifteen serotypes (HRV-1A, -1B, -2, -6, -14, -15, -21, -22, -25, -30, -41, --50, -67, -86, -89); inactive against HRV-1A, -6, -14,-67. It counts as functional, organism-based.
The subject of data set [23] is Human rhinovirus sp. Nature of the data set: tested for in vitro antiviral activity against Human rhinovirus (HRV)-14. It counts as functional.
Data set [24] relates to Human rhinovirus sp. Put plainly: Compound was tested in vitro for minimal inhibitory constant against HRV-14; IA= Inactive. Format: functional, organism-based.
Data set [25] concerns Human rhinovirus sp. Put plainly: Tested for minimal inhibitory concentration against Human rhinovirus serotype 86 by plaque reduction assay. Format: functional.
Data set [26] relates to Human rhinovirus sp. Put plainly: Tested for minimal inhibitory concentration against Human rhinovirus serotype 2 by plaque reduction assay. It counts as functional.
Data set [27] deals with Human rhinovirus sp. Put plainly: Tested for minimal inhibitory concentration against Human rhinovirus serotype 6 by plaque reduction assay. Format: functional.
For data set [28], the system named is Human rhinovirus sp. Put plainly: Tested for minimal inhibitory concentration against Human rhinovirus serotype 30 by plaque reduction assay. It counts as functional.
For data set [29], the system named is Human rhinovirus sp. Put plainly: Tested for minimal inhibitory concentration against Human rhinovirus serotype 50 by plaque reduction assay. It counts as functional.
In data set [30] the test system is Human rhinovirus sp. Nature of the data set: Tested for minimal inhibitory concentration against Human rhinovirus serotype 15 by plaque reduction assay. Format: functional.
Data set [31] has as its system Human rhinovirus sp. Nature of the data set: Tested for minimal inhibitory concentration against Human rhinovirus serotype 21 by plaque reduction assay. It counts as functional.
Data set [32] deals with Human rhinovirus sp. Put plainly: Tested for minimal inhibitory concentration against Human rhinovirus serotype 14 by plaque reduction assay. It counts as functional.
In data set [33] the test system is Human rhinovirus sp. Nature of the data set: Tested for minimal inhibitory concentration against Human rhinovirus serotype 1A by plaque reduction assay. Format: functional.
The subject of data set [34] is Human rhinovirus sp. Nature of the data set: Tested for minimal inhibitory concentration against Human rhinovirus serotype 1B by plaque reduction assay; inactive. It counts as functional, organism-based.
Data set [35] concerns Human rhinovirus sp. Put plainly: Tested for minimal inhibitory concentration against Human rhinovirus serotype 89 by plaque reduction assay. It counts as functional.
Data set [36] deals with Human rhinovirus sp. Put plainly: Tested for minimal inhibitory concentration against Human rhinovirus serotype 67 by plaque reduction assay. Format: functional.
Data set [37] relates to Human rhinovirus sp. Nature of the data set: Tested for minimal inhibitory concentration against Human rhinovirus serotype 22 by plaque reduction assay. It counts as functional.
In data set [38] the test system is Human rhinovirus sp. Nature of the data set: Tested for minimal inhibitory concentration against Human rhinovirus serotype 41 by plaque reduction assay; inactive. It counts as functional, organism-based.
Data set [39] deals with Human rhinovirus sp. Nature of the data set: Tested for minimal inhibitory concentration against Human rhinovirus serotype 25 by plaque reduction assay; inactive. Format: functional, organism-based.
Data set [40] relates to Human rhinovirus sp. Nature of the data set: Tested for in vitro antiviral activity against Human rhinovirus (HRV)-14; inactive against HRV-1A, -6, -14,-67. Format: functional, organism-based.
The test system of data set [41] is Human rhinovirus sp. Nature of the data set: Compound was tested in vitro for minimal inhibitory constant against HRV-14; inactive against HRV-1A, -6, -14,-67. Format: functional, organism-based.

In brackets after ≈: the same amount, converted by molar mass. Activity calls are given as the source filed them. The calls are words filed in the database; no cut-off is given here.

Regarding `Cc1ccc(CCCOc2c(C)cc(-c3nnn(C)n3)cc2C)o1`, the MIC80 result in data set [1] is listed as “high capacity tissue culture infectious dose”. Further, the result in [2] was inactive. The compound further returned an Activity in [3] of 30 µM.

For `Cc1cc(CCCOc2c(C)cc(-c3noc(C)n3)cc2C)on1`, the Activity in data set [4] was 0.1 µM; in [3], 0.2 µM. This compound also registered an MIC80 in data set [5] of 0.2 µM (≈ 0.0655 µg/mL).

In general, logP refers to a log measure of how a compound divides between an organic and an aqueous phase. On to `Cc1cc(CCCCCOc2c(C)cc(-c3nnn(C)n3)cc2C)on1`, for which the Activity in data set [4] is 0.5 µM; in data set [3] it was 0.8 µM. Also, the MIC80 in data set [5] was 0.6 µM (≈ 0.213 µg/mL). Besides, the logP in data set [6] turned out to be 3.6.

With `CC(=O)c1ccc(CCCCCOc2ccc(C3=NCCO3)cc2)o1`, the MIC in [7] turned out to be 0.5 µM (≈ 0.171 µg/mL); in data set [8], 4.5 µM (≈ 1.54 µg/mL); in data set [9], 1.6 µM (≈ 0.546 µg/mL); in data set [10], 1 µM (≈ 0.341 µg/mL); in data set [11] it was 0.3 µM (≈ 0.102 µg/mL); in [12], 0.3 µM (≈ 0.102 µg/mL). Also, the MIC in data set [13] stood at 2.2 µM (≈ 0.751 µg/mL); in data set [14], 0.2 µM (≈ 0.0683 µg/mL); in [15], 0.4 µM (≈ 0.137 µg/mL); in data set [16] it was 1 µM (≈ 0.341 µg/mL); in data set [17] it was 0.05 µM (≈ 0.0171 µg/mL); in [18] it was 0.7 µM (≈ 0.239 µg/mL). The figures for the MIC in [19], in [20] and in data set [21] were 0.2 µM (≈ 0.0683 µg/mL), 0.1 µM (≈ 0.0341 µg/mL) and 0.4 µM (≈ 0.137 µg/mL), respectively. Further, the results for the Activity in data set [4] and in data set [3] were 0.9 µM and 1.1 µM, respectively. In addition, the MIC80 in data set [5] was determined as 1 µM (≈ 0.341 µg/mL).

Turning to `CC(=O)c1ccc(CCCOc2c(C)cc(-c3nnn(C)n3)cc2C)o1`, the Activity in data set [4] was 0.3 µM; in data set [3], 0.5 µM. The MIC80 in [5] came to 0.5 µM (≈ 0.177 µg/mL). Further, the logP in [6] was determined as 3.2.

As to `Cc1cc(CCCCCOc2c(Cl)cc(C3=NCCO3)cc2Cl)on1` [WIN-54954], the Activity is 0.7 µM in data set [4] and 2.3 µM in [3]. Further, the MIC80 in data set [5] was determined as 0.9 µM (≈ 0.345 µg/mL). In [6], this compound registered a logP of 4.6.

Consider `Cc1cc(CCCCCOc2c(Br)cc(C3=NCCO3)cc2Br)on1`, for which the Activity was 0.6 µM in [4] and 2 µM in data set [3]. The MIC80 in [5] was 1.4 µM (≈ 0.661 µg/mL).

With `CC(=O)c1ccc(CCCCCOc2c(C)cc(-c3nnn(C)n3)cc2C)o1`, the figures for the Activity in data set [4] and in data set [3] were 0.6 µM and 1.2 µM, respectively. In data set [5], this compound showed an MIC80 of 0.8 µM (≈ 0.306 µg/mL). Further, in data set [6], the logP was found to be 3.7.

As to `CC(=O)c1ccc(CCCCCOc2c(Br)cc(C3=NCCO3)cc2Br)o1`, the Activity in data set [4] was 0.7 µM; in data set [3], 3.3 µM. Moreover, the MIC80 in data set [5] was found to be 0.9 µM (≈ 0.449 µg/mL).

Take `Cc1cc(-c2nnn(C)n2)cc(C)c1OCCCCCc1ccc(C=O)o1`: the outcome in data set [22] was inactive. In data set [23], this compound yielded an Activity of 27 µM. For the same compound, in data set [6], the logP came to 3.5. Moreover, the MIC80 entry in [24] was “inactive”.

With `Cc1cc(CCCOc2c(C)cc(-c3nnn(C)n3)cc2C)on1`, the Activity in data set [4] was 0.5 µM; in [3] it was 1.7 µM. In addition, the MIC80 in data set [5] came to 0.4 µM (≈ 0.131 µg/mL). The compound also returned a logP in data set [6] of 3.2.

Turning to `CC(=O)c1ccc(CCCCCOc2c(Cl)cc(C3=NCCO3)cc2Cl)o1`, the Activity was 0.5 µM in data set [4] and 2 µM in data set [3]. This compound also returned an MIC80 in data set [5] of 0.7 µM (≈ 0.287 µg/mL). Also, in [6], the logP amounted to 4.6.

Take `Cc1cc(CCCCCOc2ccc(C3=NCCO3)cc2)on1`: in data set [22], the result was inactive. The MIC80 in data set [5] turned out to be 7 µM (≈ 2.2 µg/mL). Further, the MIC in [25] is 0.1 µM (≈ 0.0314 µg/mL); in data set [26], 1.1 µM (≈ 0.346 µg/mL); in data set [27], 0.06 µM (≈ 0.0189 µg/mL); in [28], 0.3 µM (≈ 0.0943 µg/mL); in data set [29] it was 1.5 µM (≈ 0.472 µg/mL); in [30] it was 1.5 µM (≈ 0.472 µg/mL). Further, the MIC in data set [31] is 1.2 µM (≈ 0.377 µg/mL); in data set [32], 0.7 µM (≈ 0.22 µg/mL); in data set [33], 7 µM (≈ 2.2 µg/mL); in data set [35] it was 0.4 µM (≈ 0.126 µg/mL); in [36], 2.4 µM (≈ 0.755 µg/mL); in data set [37], 0.9 µM (≈ 0.283 µg/mL). Further, the MIC entry in [34], in data set [38] and in data set [39] was “inactive” each time. Besides, the Activity in data set [3] came out at 0.7 µM.

Regarding `Cc1ccc(CCCOc2c(C)cc(-c3noc(C)n3)cc2C)o1`, the result in [22], in data set [40] and in data set [41] was inactive.

For `CC(=O)c1ccc(CCCOc2c(C)cc(-c3noc(C)n3)cc2C)o1`, the Activity in data set [4] is 0.2 µM; in data set [3], 0.5 µM. In addition, in data set [5], the MIC80 was found to be 0.4 µM (≈ 0.142 µg/mL).
